This passage reports TGI results from PubChem BioAssay (NCI).

Holding throughout (assay): NCI-60 cell line screen, 48 h
Assay [1] deals with NCI-H23 lung.
Assay [2] relates to SF-539 CNS.
The subject of assay [3] is SNB-19 CNS.
Assay [4] relates to MALME-3M melanoma.
Assay [5] has as its system SF-295 CNS.
Assay [6] has as its system NCI-H522 lung.
In assay [7] the test system is MCF7 breast.
The subject of assay [8] is DU-145 prostate.
The subject of assay [9] is IGROV1 ovarian.
Assay [10] deals with MOLT-4 leukemia.
For assay [11], the system named is NCI-H226 lung.
For assay [12], the system named is OVCAR-8 ovarian.
Assay [13] deals with CCRF-CEM leukemia.
Assay [14] relates to HS 578T breast.
Assay [15] deals with SK-MEL-28 melanoma.
For assay [16], the system named is HCT-116 colon.

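Assay format: 96-well plates, 48-hour exposure. TGI denotes the concentration required for complete inhibition of growth.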

For `O=C1/C(=C/c2ccc(O)c(O)c2)CC/C1=C\c1ccc(O)c(O)c1`, the TGI in [1] was 11.3 µM; in [2] it was 9.64 µM; in [3], 66.4 µM; in assay [4] it was > 100 µM; in assay [5] it was > 100 µM; in assay [6] it was 5.42 µM. For the same compound, the TGI in [7] is 22.3 µM; in assay [8] it was > 100 µM; in assay [9], > 58.5 µM; in assay [10], > 36.8 µM; in [11] it was 25.8 µM; in [12], > 87.2 µM. The TGI was 9.81 µM in assay [13], > 100 µM in assay [14], > 100 µM in [15] and > 47.8 µM in [16].

`COC(=O)/N=[N+](\[O-])C(c1ccccc1)c1ccccc1`: the TGI in assay [1], in assay [2], in assay [3], in assay [4], in [6] and in assay [7] was > 100 µM throughout. For the same compound, the TGI in assay [8], in assay [9], in assay [10], in assay [11], in assay [12] and in [13] was > 100 µM each time. For the same compound, the TGI in assay [14], in [15] and in assay [16] was > 100 µM throughout.

As to `O=C1CC2CC(CC3(CO3)C2)C1F` (centres undefined), the TGI in [1], in assay [3], in assay [4], in [5], in assay [6] and in assay [7] was > 100 µM each time. Moreover, the TGI in assay [8], in assay [9], in assay [10], in assay [11], in assay [12] and in assay [13] was > 100 µM in each case. For the same compound, the TGI in [14], in assay [15] and in assay [16] was > 100 µM in each case.

With `CC(C(=O)n1ccnc1)N1c2ccccc2Sc2ccccc21` (centres undefined), the TGI in assay [1], in assay [2], in assay [3], in [4], in assay [5] and in assay [7] was > 100 µM throughout. The TGI in [8], in [9], in assay [10], in assay [11], in assay [12] and in assay [13] was > 100 µM each time. The TGI in assay [14], in assay [15] and in assay [16] was > 100 µM in each case.

As for `C#CCOCn1cc(C)c(=O)[nH]c1=O`, the TGI in assay [1], in [2], in [3], in [4], in assay [5] and in assay [7] was > 100 µM each time. In addition, the TGI in assay [8], in [9], in [10], in assay [11], in [12] and in assay [13] was > 100 µM each time. The TGI in assay [14], in assay [15] and in assay [16] was > 100 µM throughout.

For the compound `CN1CCN(Cc2nc3c(s2)CCc2sccc2-3)CC1`, the TGI in assay [1], in assay [3], in assay [4], in [5], in assay [6] and in [7] was > 100 µM in each case. The TGI in [8], in [9], in [10], in [11], in assay [12] and in assay [13] was > 100 µM each time. Besides, the TGI was > 100 µM in assay [14], 73 µM in assay [15] and > 100 µM in assay [16].

For the compound `NC(=O)Cn1c(=O)oc2cc(C(=O)CN3CCOCC3)ccc21`, the TGI in assay [2], in [3], in assay [4], in assay [5], in assay [7] and in [8] was > 100 µM in each case. The TGI in assay [9], in assay [10], in [11], in [12], in assay [13] and in [14] was > 100 µM each time. In addition, the TGI in assay [15] and in assay [16] was > 100 µM each time.

`CC(=O)n1[nH]c(=O)n(-c2ccccc2)c1=O`: the TGI in [1], in assay [3], in [4], in assay [5], in assay [6] and in assay [7] was > 100 µM each time. The TGI in assay [8], in assay [9], in assay [10], in assay [11], in [12] and in assay [13] was > 100 µM in each case. Moreover, the TGI in assay [14], in assay [15] and in assay [16] was > 100 µM each time.

As for `S=C1CC(c2ccccc2)Sc2cc(Cl)ccc2N1` (centres undefined), the TGI amounted to 22.2 µM in assay [1]; 38.7 µM in assay [3]; 93.6 µM in assay [4]; 12.6 µM in assay [5]; 16.9 µM in [6]; 34.8 µM in assay [7]. In addition, the TGI in assay [8] was > 100 µM; in [9], 84.5 µM; in assay [10], 28.2 µM; in [11], 32.7 µM; in assay [12], 31.3 µM; in assay [13], 9.33 µM. Besides, the figures for the TGI in assay [14], in assay [15] and in assay [16] were 84 µM, 51.8 µM and 17.2 µM, respectively.

For `O=C(CN=C(CN(c1ccccc1)c1ccccc1)Oc1ccc(Cl)cc1Cl)n1ccnc1`, the TGI in assay [1], in assay [2], in [3], in assay [4], in [5] and in assay [7] was > 100 µM throughout. For the same compound, the TGI in assay [8], in assay [9], in assay [10], in [11], in assay [12] and in [13] was > 100 µM each time. The TGI in [14], in [15] and in assay [16] was > 100 µM in each case.

On to `CC(=O)Oc1ccc2cc(-c3ccc(OC(C)=O)c(OC(C)=O)c3)c(=O)oc2c1`, for which the TGI in [1], in assay [2], in assay [3], in assay [4], in assay [5] and in assay [6] was > 100 µM each time. Moreover, the TGI in [7], in assay [8], in [10], in [11], in assay [12] and in [13] was > 100 µM in each case. Also, the TGI in [14], in [15] and in [16] was > 100 µM in each case.

With `Cc1cc(S(=O)(=O)NC(=NCCc2ccccc2)NN)c(S)cc1Cl`, the TGI in assay [2] is 51.3 µM; in [3], 36.7 µM; in assay [4] it was 68.6 µM; in [6], > 100 µM; in assay [7], > 100 µM; in [8], 34.6 µM. Also, the TGI in assay [9] was > 100 µM; in assay [10], 63.9 µM; in [11] it was 66.3 µM; in assay [12], 35.2 µM; in [13], 90.1 µM; in assay [14], 59.1 µM. Moreover, the TGI in assay [15] turned out to be 71.3 µM; in [16], 71.1 µM.

Take `O=C1[C@@H](O)[C@@H]2CCCC[C@@]23CCCN13`: the TGI in [1], in assay [3], in assay [4], in [5], in [6] and in assay [7] was > 100 µM throughout. The TGI in assay [8], in assay [9], in [10], in assay [11], in assay [12] and in assay [13] was > 100 µM throughout. In addition, the TGI in [14], in [15] and in assay [16] was > 100 µM in each case.

As to `Cc1cn(C2CCN(CC3COC(C)(C)O3)O2)c(=O)[nH]c1=O` (centres undefined), the TGI in assay [1], in assay [2], in [4], in assay [5], in assay [6] and in assay [7] was > 100 µM throughout. The TGI in assay [8], in assay [9], in assay [10], in assay [11], in assay [12] and in assay [13] was > 100 µM throughout. Moreover, the TGI in assay [14], in assay [15] and in assay [16] was > 100 µM each time.

`CCCCC1(O)CC2CC1C(C)C2(C)C` (centres undefined): the TGI in [1], in assay [2], in assay [3], in assay [4], in assay [5] and in [7] was > 100 µM each time. Also, the TGI in [8], in [9], in assay [10], in assay [11], in [12] and in [13] was > 100 µM in each case. Also, the TGI in assay [14], in assay [15] and in assay [16] was > 100 µM in each case.

On to `Cc1ccccc1Nc1nc(NNC(=O)Cc2ccccc2)nc(NNC(=O)c2ccncc2)n1`, for which the TGI in assay [2], in assay [4], in assay [7], in assay [8], in [9] and in assay [10] was > 10 µM each time. Further, the TGI in [12], in assay [13], in [14] and in assay [15] was > 10 µM throughout.

`CC1=CC(=O)N(n2c(Cc3ccc(Cl)cc3)n[nH]c2=O)C1=O`: the TGI in [1] was > 100 µM; in [2], > 100 µM; in assay [3] it was > 100 µM; in assay [4], > 100 µM; in assay [5] it was > 100 µM; in assay [6], 35.7 µM. In addition, the TGI in [7] is > 100 µM; in assay [8], > 100 µM; in assay [9] it was > 100 µM; in [10], 47.4 µM; in [11] it was > 100 µM; in [12], > 100 µM. In addition, the TGI was 29.3 µM in assay [13], > 100 µM in assay [14] and > 100 µM in [16].

On to `O=c1[nH]nc(Cc2ccccc2)n1/N=C/c1ccc([N+](=O)[O-])cc1`, for which the TGI in [1], in [2], in [4], in assay [5], in assay [6] and in assay [7] was > 100 µM each time. The TGI in assay [8], in assay [9], in assay [10], in [11], in assay [12] and in assay [13] was > 100 µM each time. Also, the TGI in assay [14], in assay [15] and in [16] was > 100 µM throughout.

In the case of `CCNc1nnc(-c2ccccc2Nc2ccccc2-c2nnc(NCC)s2)s1`, the TGI in assay [1] is 73.3 µM; in assay [3] it was > 100 µM; in assay [4], 58.4 µM; in assay [5], 40.5 µM; in [6], 26.9 µM; in [7], 29.7 µM. Further, the TGI was 40.1 µM in assay [8]; > 100 µM in [9]; > 78.3 µM in assay [10]; 77.2 µM in assay [11]; > 83.9 µM in assay [12]; 31.4 µM in [13]. Besides, the values for the TGI in [14], in [15] and in [16] were > 65.7 µM, 55.2 µM and > 56 µM, respectively.
